Results as given in ChEMBL document CHEMBL5325462, “Regioselective synthesis and in vitro cytotoxicity evaluation of 3-thiooxindole derivatives: Tubulin polymerization inhibition and apoptosis inducing studies” (Bioorg Med Chem, 2023).
The source made the active and inactive calls. The rule behind the calls is not given here.

Key:
MCF7 = test: Cytotoxicity against human MCF7 cells assessed as inhibition of cell growth measured after 72 hrs by MTT assay; assay type: functional, cell-based; conditions: MCF7, 72 h
A549 = test: Cytotoxicity against human A549 cells assessed as inhibition of cell growth measured after 72 hrs by MTT assay; assay type: functional, cell-based; conditions: A549, 72 h
HCT-116 [1] = test: Cytotoxicity against human HCT-116 cells assessed as inhibition of cell growth measured after 72 hrs by MTT assay; assay type: functional, cell-based; conditions: HCT-116, 72 h
[2] = Cytotoxicity against rat NRK cells assessed as inhibition of cell growth measured after 72 hrs by MTT assay; assay type: toxicity, cell-based
BT-474 = test: Cytotoxicity against human BT-474 cells assessed as inhibition of cell growth measured after 72 hrs by MTT assay; assay type: functional, cell-based; conditions: BT-474, 72 h
SK-MEL-28 = test: Cytotoxicity against human SK-MEL-28 cells assessed as inhibition of cell growth measured after 72 hrs by MTT assay; assay type: functional, cell-based; conditions: SK-MEL-28, 72 h
HCT-116 [3] = test: Induction of nuclear morphological changes in human HCT-116 cells assessed as horseshoe shaped nuclei formation measured after 48 hrs by DAPI-staining based fluorescence microscopic analysis; assay type: functional, cell-based
HCT-116 [4] = test: Induction of morphological changes in human HCT-116 cells assessed as cell nucleus shrinkage at 3.36 to 13.46 uM measured after 48 hrs by phase contrast microscope; assay type: functional, cell-based; conditions: dose 3.36-13.46 µM
HCT-116 [5] = test: Induction of nuclear morphological changes in human HCT-116 cells assessed as change in nuclear shape measured after 48 hrs by DAPI-staining based fluorescence microscopic analysis; assay type: functional, cell-based
HCT-116 [6] = test: Induction of morphological changes in human HCT-116 cells assessed as formation of necrotic bodies incubated for 24 hrs by acridine orange/ethidium bromide staining based fluorescence microscopic analysis; assay type: functional, cell-based
HCT-116 [7] = test: Induction of morphological changes in human HCT-116 cells assessed as cell detachment at 3.36 to 13.46 uM measured after 48 hrs by phase contrast microscope; assay type: functional, cell-based; conditions: dose 3.36-13.46 µM
HCT-116 [8] = test: Induction of morphological changes in human HCT-116 cells assessed as formation of apoptotic bodies incubated for 24 hrs by acridine orange/ethidium bromide staining based fluorescence microscopic analysis; assay type: functional, cell-based
HCT-116 [9] = test: Induction of nuclear morphological changes in human HCT-116 cells assessed as change in nuclear condensation measured after 48 hrs by DAPI-staining based fluorescence microscopic analysis; assay type: functional, cell-based
HCT-116 [10] = test: Inhibition of cell invasion in human HCT-116 cells at 3.36 to 13.46 uM measured after 48 hrs by phase contrast microscopic analysis; assay type: functional, cell-based; conditions: dose 3.36-13.46 µM
HCT-116 [11] = test: Induction of ROS production in human HCT-116 cells at 3.36 uM incubated for 72 hrs by DCFDA staining based fluorescence microscopic analysis; assay type: functional, cell-based
HCT-116 [12] = test: Induction of apoptosis in human HCT-116 cells assessed as reduction in cell viability at 3.36 to 13.46 uM measured after 48 hrs by phase contrast microscope; assay type: functional, cell-based; conditions: dose 3.36-13.46 µM

Structure (SMILES) | IC50 (MCF7) | IC50 (A549) | IC50 (HCT-116 [1]) | IC50 at 72 h [2] | IC50 (BT-474) | IC50 (SK-MEL-28) | Activity (HCT-116 [3]) | Activity (HCT-116 [4]) | Activity (HCT-116 [5]) | Activity (HCT-116 [6]) | Activity (HCT-116 [7]) | Activity (HCT-116 [8]) | Activity (HCT-116 [9]) | inhibition (HCT-116 [10]) | Activity (HCT-116 [11]) | Activity (HCT-116 [12])
CC(C)(C)S(=O)(=O)NCC1(Sc2nnc(-c3cccc(Br)c3)o2)C(=O)N(Cc2ccccc2)c2ccccc21 (stereo unspecified) | 12.8 µM | 12.1 µM | 12.1 µM | 14.1 µM | 12.7 µM | 12.6 µM | – | – | – | – | – | – | – | – | – | –
CC(C)(C)S(=O)(=O)NCC1(Sc2nnc(-c3ccccc3)o2)C(=O)N(Cc2ccccc2)c2ccc(F)cc21 (stereo unspecified) | 40.4 µM | 37.8 µM | > 50 µM | 33.3 µM | 16.7 µM | 30.4 µM | – | – | – | – | – | – | – | – | – | –
Cc1ccc(CN2C(=O)C(CNS(=O)(=O)C(C)(C)C)(Sc3nnc(-c4ccccc4)o3)c3ccccc32)cc1 (stereo unspecified) | 13.9 µM | 14.2 µM | 6.73 µM | 18 µM | 12.3 µM | 17.1 µM | Dose-Dependent Effect | Active | Dose-Dependent Effect | Active | Active | Dose-Dependent Effect | Dose-Dependent Effect | Active | Active | Active
CC(C)(C)S(=O)(=O)NCC1(Sc2nc3ccccc3[nH]2)C(=O)N(Cc2ccccc2)c2ccccc21 (stereo unspecified) | > 50 µM | 31.2 µM | 43.1 µM | 17.9 µM | 15.2 µM | 22.3 µM | – | – | – | – | – | – | – | – | – | –
Cc1ccc(CN2C(=O)C(CNS(=O)(=O)C(C)(C)C)(Sc3nc4ccccc4[nH]3)c3ccccc32)cc1 (stereo unspecified) | 13.9 µM | 13.2 µM | 8.96 µM | 21.8 µM | 13.3 µM | 33.6 µM | – | – | – | – | – | – | – | – | – | –
CN1C(=O)C(CNS(=O)(=O)C(C)(C)C)(Sc2nc3ccccc3[nH]2)c2cc(Br)ccc21 (stereo unspecified) | 12.8 µM | 18.2 µM | 12.3 µM | 25.7 µM | 13.1 µM | 16.8 µM | – | – | – | – | – | – | – | – | – | –
COc1cccc(-c2nnc(SC3(CNS(=O)(=O)C(C)(C)C)C(=O)N(Cc4ccc(Br)cc4)c4ccccc43)n2-c2ccccc2)c1 (stereo unspecified) | 35.8 µM | > 50 µM | > 50 µM | 21.8 µM | 13.8 µM | 26.1 µM | – | – | – | – | – | – | – | – | – | –
CC(C)(C)S(=O)(=O)NCC1(Sc2nnc(-c3ccc(Cl)cc3)n2-c2ccccc2)C(=O)N(Cc2ccccc2)c2ccccc21 (stereo unspecified) | 45 µM | > 50 µM | > 50 µM | 24.8 µM | 16 µM | > 50 µM | – | – | – | – | – | – | – | – | – | –
Cc1ccc2c(c1)C(CNS(=O)(=O)C(C)(C)C)(Sc1nc3ccccc3s1)C(=O)N2C (stereo unspecified) | 17.2 µM | 18.2 µM | 8.99 µM | 26.8 µM | 13.2 µM | 23.6 µM | – | – | – | – | – | – | – | – | – | –
Cc1ccc2c(c1)C(CNS(=O)(=O)C(C)(C)C)(Sc1nnc(-c3ccccc3)o1)C(=O)N2Cc1ccccc1 (stereo unspecified) | 34.3 µM | > 50 µM | > 50 µM | 12.7 µM | 23.6 µM | 15.6 µM | – | – | – | – | – | – | – | – | – | –
CC(C)(C)S(=O)(=O)NCC1(Sc2nnc(-c3ccc(Cl)c(Cl)c3)o2)C(=O)N(Cc2ccc(Br)cc2)c2ccccc21 (stereo unspecified) | > 50 µM | 41.7 µM | > 50 µM | 21.9 µM | 15.3 µM | 13.7 µM | – | – | – | – | – | – | – | – | – | –
COc1cccc(-c2nnc(SC3(CNS(=O)(=O)C(C)(C)C)C(=O)N(Cc4ccccc4)c4ccccc43)o2)c1 (stereo unspecified) | > 50 µM | 30.7 µM | > 50 µM | 22.9 µM | 14 µM | 15.3 µM | – | – | – | – | – | – | – | – | – | –
CC(C)(C)S(=O)(=O)NCC1(Sc2nnc(-c3ccccc3)o2)C(=O)N(Cc2ccccc2)c2ccccc21 (stereo unspecified) | 15.5 µM | 14.2 µM | 15.4 µM | 31.9 µM | 14.5 µM | 17.7 µM | – | – | – | – | – | – | – | – | – | –
O=c1[nH]cc(F)c(=O)[nH]1 [FLUOROURACIL] | 24.8 µM | 25.4 µM | 16.6 µM | – | – | – | – | – | – | – | – | – | – | – | – | –
